{"source": "patent US20230416329A1", "about": "“A PEPTIDE WITH DISULFIDE BONDS AND INHIBITORY ACTIVITY AGAINST SERINE PROTEASES, DERIVED HYBRID PEPTIDES THEREOF, AND USES THEREOF” (INSTITUTE OF MATERIA MEDICA , CHINESE ACADEMY OF MEDICAL …, priority 2020, published 2023)", "biological_target": "α-chymotrypsin (Bos taurus, UniProt P00766)", "test": "Chymotrypsin inhibitory activity of peptides (AAPFpNA hydrolysis; IC50, Ki, residual activity)", "type": "biochemical", "conditions": "for Ki: Ki=IC50/(1+S/Km), Km 0.38 mM; for IC50: chymotrypsin 30 nM, AAPFpNA 0.5 mM", "protocol": "The inhibition constants of various synthetic active peptide inhibitors (molecular scaffolds) against seine proteases were measured. The substrates N-succinyl-Ala-Ala-Pro-Phe-p-nitroaniline (AAPFpNA), Nα—Benzoyl-L-arginine-4-nitroaniline hydrochloride (BApNA) and N-succinyl-[…] (AAApNA) are used in competitive binding reaction to determine the inhibitory activities against α-chymotrypsin, bovine trypsin, and porcine pancreatic elastase, respectively. Experiments for α-chymotrypsin and bovine trypsin inhibition were measured in 20 mM CaCl2, 50 mM Tris-HCl buffer (pH 7.8), and that for porcine elastase inhibition was measured in 50 mM Tris-HCl buffer (pH 8.0). The concentration of the peptide was measured using optical density (OD) at 280 nm. The Michaelis constant (Km) of the enzyme hydrolysis substrate is calculated from the initial rate of substrate hydrolysis at 405 nm. The absorbance value of the substrate was measured at 405 nm after complete hydrolysis. All data were processed using nonlinear regression.\n• (1) Added a total 190 μL of reaction buffer (20 mM CaCl2, 50 mM Tris-HCl (pH 7.8)) into the 96 well plate, followed by preheating at 37° C. for 15 min. Then added 2 μL of different concentrations of substrates (p-Nitroanilide, pNA, 0.5% in DMSO), and mixed by centrifugation at 500 rpm for 1 min. Finally, the plate was incubated at 37° C. for 20 min, and the absorbance value at 405 nm was measured. In the 200 μL of reaction system, the final concentrations of pNA were 0, 0.025, 0.05, 0.075, 0.1, 0.125, 0.15, 0.25, and 0.3 mM, respectively. Make three repetitions for each concentration and plot the OD405 m value with pNA concentration to obtain the standard curve. • (2) Added a total 190 μL of reaction buffer (20 mM CaCl2, 50 mM Tris-HCl (pH 7.8)) and 8 μL of 0.75 μM chymotrypsin into the 96 well plate, followed by preheating at 37° C. for 5 min. Then added 2 μL of different concentrations of substrates (AAPFpNA, dissolved in DMSO), and mixed by centrifugation at 500 rpm for 1 min. Finally, the plate was incubated at 37° C. for 20 min, and the absorbance value at 405 nm was measured. In the 200 μL of reaction system, the final concentrations of AAPFpNA were 0, 0.125, 0.25, 0.285, 0.33, 0.4, and 0.5 mM, respectively. Make three repetitions for each concentration and plot the OD405 nm value with time to obtain the corresponding curve. Divide the slope of the curve by the slope of the standard curve and the enzyme concentration to obtain the initial velocity V0 (mM/(min*mM protein). Plot the initial velocity V0 with the concentration of substrate AAPFpNA using Prism software, and the Michaelis constant Km value of chymotrypsin hydrolyzing AAPFpNA was obtained.\n• (1) Added a total 190 μL of reaction buffer (20 mM CaCl2, 50 mM Tris-HCl (pH 7.8)), different concentrations of anti-chymorypsin peptides (CHs) into the pre-cold 96 well plate, followed by preheating at 37° C. for 5 min and centrifugated at 500 rpm for 1 min and allowed to stand for 4 minutes. Then added 8 μL of 750 nM chymotrypsin and incubated at 37° C. for 10 min, and centrifugated at 500 rpm for 1 min and allowed to stand for 9 minutes. Finally, added 2 μL of 50 mM AAPFpNA, and mixed by centrifugation at 500 rpm for 1 min. The plate was incubated at 37° C. for 90 min, and the absorbance value at 405 nm was measured. Three repetitions were made, and only reaction buffer and substrate were added in the blank control as the minimum absorption value (Min OD405 nm); Only reaction buffer, enzyme and substrate were added in the negative control as the maximum absorption value (Max OD405). • (2) In the 200 μL of reaction system, the final concentrations of chymotrypsin and AAPFpNA were 30 nM and 0.5 mM, respectively. • (3) Data statistics\nResidual activity of enzyme (%)=(1−(Max OD405 nm−Sample OD405 nm)/(Max OD405 nm−Min OD405 nm))*100 […]", "note": "Bridge positions count the residues as written; N and C are the ends. Peptide text beside a SMILES is read from it.", "data": [{"smiles": "CC[C@H](C)[C@@H]1NC(=O)[C@H](CO)NC(=O)[C@H](Cc2ccc(O)cc2)NC(=O)[C@H]([C@@H](C)O)NC(=O)[C@H](C)NC(=O)[C@H](CO)NC(=O)CNC(=O)[C@@H](N)CSSC[C@@H](C(=O)N[C@@H](Cc2ccccc2)C(=O)NCC(=O)O)NC(=O)[C@H](CCCCN)NC(=O)[C@H](C)NC(=O)[C@@H]2CCCN2C1=O", "note": "[CH24] (H-CGSATYSIPAKCFG-OH; disulfide 1-12; N-terminus and C-terminus assumed)", "values": [{"measurement": "inhibitory activity against chymotrypsin (in words)", "result": "good inhibitory activity"}, {"measurement": "Ki", "result": 2.65, "unit": "µM"}, {"measurement": "IC50", "result": 6.14, "unit": "µM"}]}, {"smiles": "CC[C@H](C)[C@@H]1NC(=O)[C@H](CO)NC(=O)[C@H](Cc2ccccc2)NC(=O)[C@H](C)NC(=O)[C@H](CC(C)C)NC(=O)[C@@H](N)CSSC[C@@H](C(=O)N[C@@H](Cc2ccc(O)cc2)C(=O)NCC(=O)O)NC(=O)[C@H](CCC(N)=O)NC(=O)[C@@H]2CCCN2C(=O)[C@@H]2CCCN2C1=O", "note": "[CH2] (H-CLAFSIPPQCYG-OH; disulfide 1-10; N-terminus and C-terminus assumed)", "values": [{"measurement": "IC50", "result": "> 50", "unit": "µM"}]}, {"smiles": "CC[C@H](C)[C@@H]1NC(=O)[C@@H]2CCCN2C(=O)[C@@H]2CCCN2C(=O)[C@H]([C@@H](C)CC)NC(=O)[C@H](CO)NC(=O)[C@H](Cc2ccccc2)NC(=O)[C@H]([C@@H](C)O)NC(=O)[C@@H](NC(=O)[C@@H](NC(=O)CN)[C@@H](C)O)CSSC[C@@H](C(=O)N[C@@H](CC(N)=O)C(=O)N2CCC[C@H]2C(=O)N[C@@H](CC(N)=O)C(=O)O)NC1=O", "note": "[CH25] (H-GTCTFSIPPICNPN-OH; disulfide 3-11)", "values": [{"measurement": "Ki", "result": 0.12, "unit": "µM"}, {"measurement": "IC50", "result": 0.28, "unit": "µM"}]}, {"smiles": "CC[C@H](C)[C@@H]1NC(=O)[C@H](CO)NC(=O)[C@H](Cc2ccc(O)cc2)NC(=O)[C@H]([C@@H](C)O)NC(=O)[C@H](C)NC(=O)[C@H](CO)NC(=O)CNC(=O)[C@@H](N)CSSC[C@@H](C(=O)N[C@@H](Cc2ccc(O)cc2)C(=O)NCC(=O)O)NC(=O)[C@H](CCC(N)=O)NC(=O)[C@@H]2CCCN2C(=O)[C@@H]2CCCN2C1=O", "note": "[CH15] (H-CGSATYSIPPQCYG-OH; disulfide 1-12; N-terminus and C-terminus assumed)", "values": [{"measurement": "Ki", "result": 1.99, "unit": "µM"}, {"measurement": "IC50", "result": 4.6, "unit": "µM"}]}, {"smiles": "CC[C@H](C)[C@@H]1NC(=O)[C@H](CO)NC(=O)[C@H](Cc2ccc(O)cc2)NC(=O)[C@H]([C@@H](C)O)NC(=O)[C@H](C)NC(=O)[C@H]([C@@H](C)O)NC(=O)CNC(=O)[C@@H](N)CSSC[C@@H](C(=O)N[C@@H](Cc2ccc(O)cc2)C(=O)NCC(=O)O)NC(=O)[C@H](CCC(N)=O)NC(=O)[C@@H]2CCCN2C(=O)[C@@H]2CCCN2C1=O", "note": "[CH22] (H-CGTATYSIPPQCYG-OH; disulfide 1-12; N-terminus and C-terminus assumed)", "values": [{"measurement": "IC50", "result": "> 50", "unit": "µM"}]}, {"smiles": "CC[C@H](C)[C@@H]1NC(=O)[C@H](CO)NC(=O)[C@H](Cc2ccccc2)NC(=O)[C@H]([C@@H](C)O)NC(=O)[C@H](C)NC(=O)[C@H](Cc2ccccc2)NC(=O)CNC(=O)[C@@H](N)CSSC[C@@H](C(=O)N[C@@H](Cc2ccc(O)cc2)C(=O)NCC(=O)O)NC(=O)[C@H](CCC(N)=O)NC(=O)[C@@H]2CCCN2C(=O)[C@@H]2CCCN2C1=O", "note": "[CH12] (H-CGFATFSIPPQCYG-OH; disulfide 1-12)", "values": [{"measurement": "IC50", "result": "> 50", "unit": "µM"}]}, {"smiles": "CC[C@H](C)[C@@H]1NC(=O)[C@H](CO)NC(=O)[C@H](Cc2ccc(O)cc2)NC(=O)[C@H]([C@@H](C)O)NC(=O)[C@H](C)NC(=O)[C@H](CO)NC(=O)[C@@H](N)CSSC[C@@H](C(=O)N[C@@H](Cc2ccc(O)cc2)C(=O)NCC(=O)O)NC(=O)[C@H](CCC(N)=O)NC(=O)[C@@H]2CCCN2C(=O)[C@@H]2CCCN2C1=O", "note": "[CH16] (H-CSATYSIPPQCYG-OH; disulfide 1-11; N-terminus and C-terminus assumed)", "values": [{"measurement": "IC50", "result": "> 50", "unit": "µM"}]}, {"smiles": "CSCC[C@@H]1NC(=O)[C@H](C)NC(=O)[C@@H]2CCCN2C(=O)[C@H](CC(N)=O)NC(=O)[C@H](CO)NC(=O)[C@H](Cc2ccccc2)NC(=O)[C@H]([C@@H](C)O)NC(=O)[C@@H](NC(=O)[C@@H](N)C(C)C)CSSC[C@@H](C(=O)N[C@@H](Cc2c[nH]cn2)C(=O)O)NC1=O", "note": "[CH48] (H-VCTFSNPAMCH-OH; disulfide 2-10)", "values": [{"measurement": "IC50", "result": "> 50", "unit": "µM"}]}, {"smiles": "CC[C@H](C)[C@@H]1NC(=O)[C@H](CO)NC(=O)[C@H](Cc2ccc(O)cc2)NC(=O)[C@H]([C@@H](C)O)NC(=O)[C@H](C)NC(=O)[C@H](Cc2ccccc2)NC(=O)CNC(=O)[C@@H](N)CSSC[C@@H](C(=O)N[C@@H](Cc2ccc(O)cc2)C(=O)NCC(=O)O)NC(=O)[C@H](CCC(N)=O)NC(=O)[C@@H]2CCCN2C(=O)[C@@H]2CCCN2C1=O", "note": "[CH14] (H-CGFATYSIPPQCYG-OH; disulfide 1-12)", "values": [{"measurement": "IC50", "result": "> 50", "unit": "µM"}]}, {"smiles": "CC[C@H](C)[C@@H]1NC(=O)[C@H](CO)NC(=O)[C@H](Cc2ccccc2)NC(=O)[C@H]([C@@H](C)O)NC(=O)[C@@H](NC(=O)[C@@H](N)CC(C)C)CSSC[C@@H](C(=O)N[C@@H](Cc2ccc(O)cc2)C(=O)NCC(=O)O)NC(=O)[C@H](CCC(N)=O)NC(=O)[C@@H]2CCCN2C(=O)[C@@H]2CCCN2C1=O", "note": "[CH1] (H-LCTFSIPPQCYG-OH; disulfide 2-10; N-terminus and C-terminus assumed)", "values": [{"measurement": "Ki", "result": 0.46, "unit": "µM"}, {"measurement": "IC50", "result": 1.07, "unit": "µM"}, {"measurement": "Residual activity of chymotrypsin", "setting": "peptide 0.001 μM", "result": "103.5 ± 1.6", "unit": "%"}, {"measurement": "Residual activity of chymotrypsin", "setting": "peptide 0.01 μM", "result": "104.8 ± 7.2", "unit": "%"}, {"measurement": "Residual activity of chymotrypsin", "setting": "peptide 0.1 μM", "result": "93.6 ± 5.5", "unit": "%"}, {"measurement": "Residual activity of chymotrypsin", "setting": "peptide 1 μM", "result": "55.0 ± 3.3", "unit": "%"}, {"measurement": "Residual activity of chymotrypsin", "setting": "peptide 3 μM", "result": "26.4 ± 1.1", "unit": "%"}, {"measurement": "Residual activity of chymotrypsin", "setting": "peptide 10 μM", "result": "10.6 ± 0.2", "unit": "%"}, {"measurement": "Residual activity of chymotrypsin", "setting": "peptide 100 μM", "result": "1.2 ± 0.1", "unit": "%"}, {"measurement": "Residual activity of chymotrypsin", "setting": "peptide 300 μM", "result": "0.3 ± 0.1", "unit": "%"}, {"measurement": "Residual activity of chymotrypsin", "setting": "peptide 1000 μM", "result": "0.5 ± 0.1", "unit": "%"}]}, {"smiles": "CC[C@H](C)[C@@H]1NC(=O)[C@H](CO)NC(=O)[C@H](Cc2ccc(O)cc2)NC(=O)[C@H]([C@@H](C)O)NC(=O)[C@@H](NC(=O)[C@@H](N)Cc2ccccc2)CSSC[C@@H](C(=O)N[C@@H](Cc2ccc(O)cc2)C(=O)O)NC(=O)[C@H](CCCCN)NC(=O)[C@H](C)NC(=O)[C@@H]2CCCN2C1=O", "note": "[CH36] (H-FCTYSIPAKCY-OH; disulfide 2-10; N-terminus and C-terminus assumed)", "values": [{"measurement": "Ki", "result": 1.39, "unit": "µM"}, {"measurement": "IC50", "result": 3.23, "unit": "µM"}]}, {"smiles": "CC[C@H](C)[C@@H]1NC(=O)[C@H](CO)NC(=O)[C@H](Cc2ccc(O)cc2)NC(=O)[C@H]([C@@H](C)O)NC(=O)[C@H](C)NC(=O)[C@H](CO)NC(=O)CNC(=O)[C@@H](N)CSSC[C@@H](C(=O)N[C@@H](Cc2ccc(O)cc2)C(=O)O)NC(=O)[C@H](CCC(N)=O)NC(=O)[C@@H]2CCCN2C(=O)[C@@H]2CCCN2C1=O", "note": "[CH9] (H-CGSATYSIPPQCY-OH; disulfide 1-12; N-terminus and C-terminus assumed)", "values": [{"measurement": "inhibitory activity against chymotrypsin (in words)", "result": "certain inhibitory activity against chymotrypsin"}, {"measurement": "Ki", "result": 12.3, "unit": "µM"}, {"measurement": "IC50", "result": 28.4, "unit": "µM"}]}]}
